EP0092121A1, “Methods and compositions for treating gastro-intestinal ulcer diesease” (BOARD OF REGENTS THE UNIVERSITY OF TEXAS SYSTEM, priority 1982, dated 1983)

Tested on: acute pylorus-ligated rat preparation
Assay: In vivo protection against acid-induced gastric damage in HCl-challenged rats (gross examination, gastric hemoglobin)
Settings: individual phospholipid, gastric sample hemoglobin after 0.6 N HCl
Experimental: Applicants directly investigated this question in an acute pylorus-ligated rat preparation, in which test agents could be administered directly into the stomach by way of an esophageal cannula. Rats were fasted overnight and maintained under Nembutal anesthesia throughout the study period. The rats were divided into two groups (3 rats/grp); one group which was designated "surfactant treated" received 0.5 ml of a liposomal suspension in saline of the following phospholipids: […], 15 µg of DPPE, DPPG, DPPI and Sphingomyelin; and the second group (controls) was intragastrically injected with 0.5 ml of saline. Five minutes later both groups received 1 ml of an ulcerogenic dose of 0.6 N HCI. The anesthetized animals were left undisturbed for 45 minutes, after which they were sacrificed, and the stomachs excised, opened along the greater curvature and examined.
In another series of in vivo experiments, the individual phospholipids: dipalmitoyl lecithin, dipalmitoyl phosphatidyl ethanolamine, and phosphatidyl choline were tested for anti-ulcer activity. The experiments were performed as described above. In addition, immediately before the rat was sacrificed, a gastric sample was withdrawn for hemoglobin analysis. […] Sample anti-ulcer activity was measured as a percent of hemoglobin count relative to hemoglobin detected from animals pretreated with the combination of 135 µg DPL, 15 µg of DPPE, DPPG, DPPI and sphingomyelin mixture.
Anti-ulcer activity was inversely proportional,to the amount of hemoglobin detected. Table I tabulates the relative anti-ulcer activity of the individually tested phospholipids.

Compound: phosphatidylcholine [Phosphatidyl choline]
- ACTIVITY (anti-ulcer activity, hemoglobin count relative to mixture) (15 µg): 80%
- ACTIVITY (anti-ulcer activity, hemoglobin count relative to mixture) (135 µg): 80%

Compound: CCCCCCCCCCCCCCCC(=O)OCC(COP(=O)([O-])OCC[N+](C)(C)C)OC(=O)CCCCCCCCCCCCCCC (stereo not drawn) [Dipalmitoyl lecithin, dipalmitoyl lecithin]
- ACTIVITY (anti-ulcer activity, hemoglobin count relative to mixture) (15 µg): 95%
- ACTIVITY (anti-ulcer activity, hemoglobin count relative to mixture) (135 µg): 90%

Compound: CCCCCCCCCCCCCCCC(=O)OCC(COP(=O)(O)OCCN)OC(=O)CCCCCCCCCCCCCCC (stereo not drawn) [Dipalmitoyl phosphatidyl ethanolamine, dipalmitoyl phosphatidyl ethanolamine]
- ACTIVITY (anti-ulcer activity, hemoglobin count relative to mixture) (15 µg): 75-80%
- ACTIVITY (anti-ulcer activity, hemoglobin count relative to mixture) (135 µg): 70%
